Measurements reported in article PMC12771125, “Compounds Reducing Human Sperm Motility as Potential Nonhormonal Contraceptives Identified Using a High-Throughput Phenotypic Screening Platform” (ACS Omega, 2025).
Like-named read-outs stand apart in the source and are kept apart here.

Legend:
[1] = test system: human sperm; experiment: Reduction of sperm motility (RSM) high-throughput phenotypic assay; format: cell-based; conditions: reduction of progressive sperm motility relative to control; for EC50: Homo sapiens
Description: Using our previously established phenotypic human sperm motility screening platform, we screened a large subset (62,621 compounds) of one of our in-house diversity libraries (National Phenotypic Screening Centre (NPSC) Diversity Set) (Figure A,B). Briefly, human sperm are collected, isolated from semen, distributed into 384-well plates with test compounds, time-lapse images of sperm movement are recorded using a high-content imager, and progressive motility parameters are calculated using custom data analysis software. Sperm motility is complicated, and the mechanisms underpinning its regulation are not fully understood. Progressive motility, which is a measurement of the movement of forward progression of sperm, is most closely linked to sperm quality, and the percentage of progressively motile sperm compared to control is therefore the parameter utilized during the work described in this paper. […]
We used an HTS screening platform to assess the motility of live human spermatozoa. The platform and its development are described in detail in Gruber et al. , and summarized below in brief. The platform was used to screen compound libraries specifically focusing on reduction in motility. Interesting compounds were examined in further detail as possible starting points for a medicinal chemistry program. The experimental design is illustrated in Figure .
Donors were local to the Dundee area, over the age of 18, and had no known fertility problems and normal sperm concentration, motility and semen characteristics according to WHO 2021 criteria. Special category personal data for donors, such as ethnic origin, was not recorded in accordance with ethical approval and UK GDPR. Samples were obtained by masturbation, after sexual abstinence of 2–5 days, and delivered to the research laboratory within one h of production. Samples were allowed to liquefy at 37 °C for 15–30 min prior to preparation by discontinuous density gradient centrifugation (DGC). […] A minimum of 3 prepared donor samples were routinely pooled to reduce donor-to-donor variability for primary screening assays. Pooled samples were incubated for 3 h at 37 °C under noncapacitating conditions.
In brief, screening batches of cells were transferred to a robotic platform (HighRes Biosolutions Inc.) and maintained during the screen at 37 °C at 5% CO2. Assay-ready 384-well plates containing compounds were prepared prior to the screen and filled with approximately 10,000 spermatozoa (20 μL) per well using a liquid handling system (MultiDrop Combi; ThermoFisher). These plates were incubated for 10 min prior to imaging. The HTS system utilized a Yokogawa CV7000 Cell Voyager high-throughput microscope to record time-lapse images from 2 positions in each well. An adaptation of a tracking algorithm, Trackpy v0.4.1 was utilized to track individual spermatozoa within each well and obtain kinematic parameters. Within the compound-test plates, DMSO was used as the vehicle control.
All steps were performed as previously described. , In summary, data from every compound well were normalized to those from in-plate DMSO controls (wells containing the same amount of DMSO as compound wells). Two positions were recorded in every well, and the average of those positions was used for calculating % of control (median value/DMSO median) × 100. Each plate contained 16 DMSO control wells. Median curvilinear velocity (VCL) was used as the primary readout for the NPSC Diversity Set screened at 6 μM, and percentage progressive motility (PM) was used for all other libraries screened. Hits from the primary screening were chosen based on the % change compared to the control. In these experiments, an RSM of ≥20% compared to negative controls (DMSO) was chosen as a cutoff for potential progression.
In a screening program of this scale, a significant number of compounds are likely to have a negative effect on sperm motility, but a number will show general toxicity. […]

[2] = test system: HepG2 cells; experiment: HepG2 cytotoxicity assay (resazurin, 72 h); format: cell-based, human; conditions: Homo sapiens, HepG2, 72 h; read-out: HepG2 pEC50 (converted)
From the text: Our overarching aims for investigating our chemical series and deciding which ones had the potential for further progression were to achieve adequate potency in our motility assay, suitable solubility, and minimal cytotoxicity in HepG2 cells. This third point was often the most challenging, as multiple series had cytotoxicity in HepG2 cells. This observation is perhaps not surprising; many potential targets in sperm cells can also be found in somatic cells. Our cytotoxicity assay is run with an incubation time of 72 h, to give time for gross cytotoxic effects to become apparent.
Compound dilution curves were plated directly using a Labcyte Echo 550 acoustic dispenser (125 nL) in 384-well white clear-bottom plates (Greiner). HepG2 cells (ATCCHepG2 HB-8065) were cultured in minimum essential medium (supplemented with glutamax) with 10% FCS and plated (25 μL) using a WellMate dispenser ([…]) and incubated for 72 h. Doxorubicin was used as a positive control drug. Resazurin was then added to each well at a final concentration of 45 μM, and fluorescence was measured using a PHERAstar LS (BMG Labtech) after 4 h of further incubation (excitation of 528 nm and emission of 590 nm). Raw data were normalized to controls and expressed as % growth.
Figure S2: Concentration-response curves from high throughput HepG2 viability assay. Each compound was tested in duplicate and the curves of each replicate are shown. The reported values in the tables are an average of the 2 pEC50 values obtained. […]
determine 0% effect, positive control used to determine 100% effect).
Hit compounds 1a, 6b and 7a were repurchased from commercial suppliers including enamine and […]

[3] = 10 min, 10 min incubation, reported <X (neg. log of top concentration) if largest reduction <70%, read-out: RSM pEC50 10 mins (converted)
[4] = 3 h incubation, reported <X if largest reduction <70%, read-out: RSM pEC50 3 hrs (converted)
[5] = 6 h incubation, reported <X if largest reduction <70%, read-out: RSM pEC50 6 hrs (converted)

| Compound | RSM pEC50 10 mins ([1]; 10 min incubation, reported <X (neg. log of top concentration) if largest reduction <70%) | RSM pEC50 3 hrs ([1]; 3 h incubation, reported <X if largest reduction <70%) | RSM pEC50 6 hrs ([1]; 6 h incubation, reported <X if largest reduction <70%) | EC50 [1, 3] [µM] | EC50 [2] [µM] | EC50 [1, 4] [µM] | EC50 [1, 5] [µM] |
| --- | --- | --- | --- | --- | --- | --- | --- |
| 2-(Phenoxymethyl)-N-(4-(pyridin-2-yl)thiazol-2-yl)benzamide [Compound 3a] | <4.5 | 5.0 | 5.3 | – | – | – | – |
| N#Cc1ccc(NC(=O)c2ccccc2)cc1Cl [Compound 1i] | – | – | – | > 20 | 39.8 | – | – |
| NCCN(C(=O)c1ccc(F)cc1Cl)c1ccc(Cl)cc1 [Compound 1m] | – | – | – | > 31.6 | 63.1 | > 31.6 | > 31.6 |
| O=C(Nc1nc(C2CC2)cs1)Nc1ccc(F)cc1F [Compound 3h] | – | – | – | > 31.6 | 63.1 | > 31.6 | > 31.6 |
| O=C(Nc1nc(-c2ccccn2)co1)Nc1ccc(F)cc1F [Compound 3n] | – | – | – | > 31.6 | > 100 | > 31.6 | > 31.6 |
| CCN(CC)Cc1cc(Nc2ccnc3cc(Cl)ccc23)ccc1O [Compound 5a, 4-((7-Chloroquinolin-4-yl)amino)-2-((diethylamino)methyl)phenol, reference compound] | – | – | – | > 31.6 | 20 | > 31.6 | 0.501 |
| Oc1ccc(Nc2ccnc3cc(Cl)ccc23)cc1CN1CCCC1 [Compound 5b] | – | – | – | > 31.6 | 12.6 | > 31.6 | 0.2 |
| Oc1ccc(Nc2ccnc3cc(Cl)ccc23)cc1CN1CCNCC1 [Compound 5c] | – | – | – | > 31.6 | 12.6 | > 31.6 | 0.794 |
| Fc1ccc(Nc2ccnc3cc(Cl)ccc23)cc1CN1CCCC1 [Compound 5h] | – | – | – | > 31.6 | – | > 31.6 | > 31.6 |
| Cc1cc(C)nc(-n2nc(C)cc2Nc2ccccc2)n1 [Compound 6a, 1-(4,6-dimethylpyrimidin-2-yl)-3-methyl-N-phenyl-1H-pyrazol-5-amine] | – | – | – | > 31.6 | – | 5.01 | 1.58 |
| O=C1COC2(CCN(Cc3ccc(F)cc3)CC2)CN1 [Compound 8a, 9-(4-Fluorobenzyl)-1-oxa-4,9-diazaspiro[5.5]undecan-3-one] | – | – | – | 12.6 | > 100 | 2 | 0.794 |
| O=C1COC2(CCN(Cc3ccncc3)CC2)CN1 [Compound 8b] | – | – | – | 15.8 | – | 1.26 | 0.501 |
| O=C1COC2(CCN(Cc3cccnc3)CC2)CN1 [Compound 8c] | – | – | – | > 31.6 | – | 6.31 | 1.58 |
| O=C1COC2(CCN(Cc3ccsc3)CC2)CN1 [Compound 8d] | – | – | – | > 31.6 | – | 2 | 1 |
| O=C1COC2(CCN(Cc3ccoc3)CC2)CN1 [Compound 8e] | – | – | – | > 31.6 | – | 3.16 | 1.26 |
| O=C1COC2(CCN(Cc3ccco3)CC2)CN1 [Compound 8f] | – | – | – | > 31.6 | – | > 31.6 | 25.1 |
| Cc1ccc(CN2CCC3(CC2)CNC(=O)CO3)cc1 [Compound 8g] | – | – | – | > 31.6 | – | > 31.6 | > 31.6 |
| CN1CC2(CCN(Cc3ccc(F)cc3)CC2)OCC1=O [Compound 8h] | – | – | – | > 31.6 | > 100 | > 31.6 | > 31.6 |
| NC(=O)N1CCC2(CCN(Cc3cccc(F)c3)CC2)CC1 [Compound 9a, 9-(3-Fluorobenzyl)-3,9-diazaspiro[5.5]undecane-3-carboxamide] | – | – | – | > 31.6 | > 100 | 6.31 | 3.98 |
| CC(=O)N1CCC2(CCN(Cc3cccc(F)c3)CC2)CC1 [Compound 9b] | – | – | – | > 31.6 | – | > 31.6 | > 31.6 |
| CNC(=O)N1CCC2(CCN(Cc3cccc(F)c3)CC2)CC1 [Compound 9c] | – | – | – | > 31.6 | – | > 31.6 | > 31.6 |
| Fc1cccc(CN2CCC3(CCNCC3)CC2)c1 [Compound 9d] | – | – | – | > 31.6 | 63.1 | > 31.6 | > 31.6 |
| NC(=O)N1CCC2(CCN(Cc3ccc(F)cc3)CC2)CC1 [Compound 9e] | – | – | – | > 31.6 | – | > 31.6 | > 31.6 |
